Source: paper PMC9564337, “Development of a Neurotensin-Derived ^68Ga-Labeled PET Ligand with High In Vivo Stability for Imaging of NTS1 Receptor-Expressing Tumors” (Cancers, 2022)
Read-outs that look alike come from different tables or passages of the source. Marks after values point to notes of the source that are not given here.

Legend:
hNTS2R = hNTS2R (Homo sapiens, UniProt O95665); assay: radioligand competition binding with [3H]UR-MK300 at intact HEK293T-hNTS2R cells; details: [3H]UR-MK300 c = 10 nM
Chain of hNTS2R (O95665 whole entry): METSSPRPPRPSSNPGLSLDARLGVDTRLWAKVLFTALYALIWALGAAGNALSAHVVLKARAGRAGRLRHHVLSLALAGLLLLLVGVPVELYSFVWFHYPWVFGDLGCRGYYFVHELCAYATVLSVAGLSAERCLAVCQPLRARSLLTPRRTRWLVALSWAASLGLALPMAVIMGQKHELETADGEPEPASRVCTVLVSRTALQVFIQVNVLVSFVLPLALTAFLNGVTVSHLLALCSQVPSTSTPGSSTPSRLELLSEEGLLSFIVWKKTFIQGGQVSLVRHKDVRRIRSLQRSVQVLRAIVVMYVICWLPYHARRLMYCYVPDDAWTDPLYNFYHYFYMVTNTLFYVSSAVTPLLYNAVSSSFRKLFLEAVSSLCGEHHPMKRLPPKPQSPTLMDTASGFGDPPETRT
Experimental: Two days prior to the experiment, white 96-well plates with clear bottoms (Costar, catalog no. 3610) were treated with poly-D-lysine hydrobromide (Sigma-Aldrich) for 10 min. The wells were washed with H2O and the plates were dried on air at rt overnight. […] After removal of the glutaraldehyde solution, the wells were washed twelve times with H2O and two times with culture medium (150–300 µL). […] On the day of the experiment, the culture medium was carefully removed using a multi-channel pipette (Transferpette S-12, Brand, Wertheim, Germany) and the cells were washed once with Dulbecco’s phosphate-buffered saline (D-PBS) containing Ca^2+ and Mg^2+ (1.8 mM CaCl2, 2.68 mM KCl, 1.47 mM KH2PO4, 3.98 mM MgSO4, 136.9 mM NaCl and 8.06 mM Na2HPO4) (200 μL, rt) followed by the careful pre-filling of the wells with 180 µL (total binding) or 160 µL (unspecific and competition binding) of D-PBS, supplemented with 1% BSA and 100 μg/mL bacitracin (Serva, Heidelberg, Germany) (in the following referred to as binding buffer). To determine total binding, 20 µL of a solution of the radioligand in binding buffer (10-fold concentrated compared to the final concentration) were added. […] To determine the displacing effect of a compound of interest, 20 µL of a solution of the respective compound in binding buffer (10-fold concentrated) and 20 µL of a 10-fold concentrated solution of the radioligand in binding buffer were added. During the incubation period of 2 h at 23 °C, the plates were gently shaken. […] The plates were sealed with a transparent sealing tape (permanent seal for microplates, PerkinElmer, product no. 1450–461) and turned upside down several times to achieve complete mixing. Prior to the measurement of the radioactivity with a MicroBeta2 plate counter (PerkinElmer), the plates were kept in the dark for at least 1 h. All experiments were performed in triplicate.

hNTS1R [1] = target: T1, hNTS1R (Homo sapiens, UniProt P30989); assay: radioligand competition binding with [3H]UR-MK300 at intact HT-29 cells
T1 construct: intact HT-29 colon carcinoma cells expressing the hNTS1R; host or cells: HT-29 human colon carcinoma cells
T1 sequence (P30989 whole entry): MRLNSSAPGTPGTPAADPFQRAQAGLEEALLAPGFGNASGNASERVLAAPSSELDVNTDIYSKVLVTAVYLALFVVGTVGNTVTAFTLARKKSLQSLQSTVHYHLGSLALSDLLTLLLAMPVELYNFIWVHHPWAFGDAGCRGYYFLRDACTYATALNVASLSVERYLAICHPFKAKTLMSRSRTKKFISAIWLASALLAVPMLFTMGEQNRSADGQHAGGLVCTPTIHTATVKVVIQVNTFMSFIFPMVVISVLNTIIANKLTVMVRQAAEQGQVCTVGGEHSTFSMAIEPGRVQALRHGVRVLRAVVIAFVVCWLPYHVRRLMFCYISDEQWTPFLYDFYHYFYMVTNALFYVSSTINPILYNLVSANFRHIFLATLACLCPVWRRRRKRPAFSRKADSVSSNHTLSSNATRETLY
Text: Specific binding data (obtained by subtracting unspecific binding from total binding) were normalized (100% = specifically bound radioligand in the absence of competitor) and plotted over log(concentration of competitor) followed by a four-parameter logistic fit (SigmaPlot 12.5, Systat Software, San José, CA, USA) (note: in the case of 40, the lower curve plateau of the sigmoidal fit was constrained to >0). […] The Ki values from individual experiments were transformed to pKi values, followed by the calculation of mean pKi values ± SD.

[2] = human plasma, 37 °C, cited from earlier work
hNTS1R [3] = target: T1, hNTS1R; details: HT-29 cells, cited from earlier work
hNTS1R [4] = target: T1, hNTS1R; assay: fura-2 Ca2+-assay on intact HT-29 cells; format: cell-based; details: maximal response comparable to that of 1
Experimental: The fura-2 calcium assay on intact hNTS1R-expressing HT-29 cells was performed as previously described for human erythroleukemia cells using a Perkin-Elmer LS50 B spectrofluorimeter (PerkinElmer, Rodgau, Germany). At a confluency of 80–95%, cells were trypsinized, detached from the culture flask and the assay was performed as described in the protocol.

in vitro = in vitro ADME; details: human
Experimental: The concentration of the peptides in plasma/PBS (1:2 v/v) was 80 and 4 μM (recovery determination) or 100 μM (stability tests). Data analysis was based on UV detection at 220 nm (8, 9, 11, 12, 14-18, 21-23, 38-49, and 54-57) or fluorescence detection at 275/305 nm (19 and 20). Reference samples, representing 100% recovery, were prepared in duplicate (8, 9, 11, 14-16, and 19-21) or quadruplicate (12, 17, 18, 22, 23, 38-49, and 54-57). Recovery ratios were obtained by dividing the recovery of the peptide by the recovery of IS for each individual sample (n = 3-5). The obtained recoveries and the recovery ratios are summarized in Table S2, Supplementary Materials. […] Instead, the recovery ratios determined for the previously reported, structurally closely related peptide […] [40] were used for calculating the amount of remaining intact peptide in plasma.

[5] = read-out: Ki [nM] NTS2R (converted)
[6] = read-out: pKi ± SD NTS2R (converted)
[7] = ref Schindler et al. [3] of the supplement (= [60])

CN[C@@H](CCCNC(=N)N)C(=O)N[C@@H](CCCNC(=N)N)C(=O)N1CCC[C@H]1C(=O)N[C@@H](Cc1ccc(O)cc1)C(=O)N[C@H](C(=O)N[C@@H](CC(C)C)C(=O)O)C(C)(C)C [Compound 3, reference compound]
Ki (hNTS2R; [5]): 9.9 nM | Ki (hNTS2R; [6]): 9.77 nM | NTS1R Selectivity (Ratio Ki (NTS2R)/Ki (NTS1R)) (hNTS1R [1]): 11 | % Intact Peptide in Plasma after 1 h ([2]; ref Schindler et al. [40]): >99 ^d % | % Intact Peptide in Plasma after 6 h ([2]; ref Schindler et al. [40]): >99 ^d % | % Intact Peptide in Plasma after 24 h ([2]; ref Schindler et al. [40]): 98 ^d % | % Intact Peptide in Plasma after 48 h ([2]; ref Schindler et al. [40]): 87 ^d % | pKi NTS1R (hNTS1R [3]; ref Schindler et al. [40]): 9.07

CN[C@@H](CCCNC(N)=NC(=O)NCCCCN)C(=O)N[C@@H](CCCNC(=N)N)C(=O)N1CCC[C@H]1C(=O)N[C@@H](Cc1ccc(O)cc1)C(=O)N[C@H](C(=O)N[C@@H](CC(C)C)C(=O)O)C(C)(C)C [Compound 10]
Ki (hNTS2R; [5]): 19 nM | Ki (hNTS2R; [6]): 19.1 nM | NTS1R Selectivity (Ratio Ki (NTS2R)/Ki (NTS1R)) (hNTS1R [1]): 6.8 | % Intact Peptide in Plasma after 1 h [2, 7]: > 99% | % Intact Peptide in Plasma after 6 h [2, 7]: > 99% | % Intact Peptide in Plasma after 24 h [2, 7]: > 99% | % Intact Peptide in Plasma after 48 h [2, 7]: > 99% | pKi NTS1R (hNTS1R [3]; [7]): 8.55 | Ki (hNTS1R [3]; ref Schindler et al. [3] of the supplement (= [60]), read-out: Ki [nM] NTS1R): 2.8 nM

CN[C@@H](CCCNC(N)=NC(=O)NCCCCNC(=O)CN1CCN(CC(=O)O)CCN(CC(=O)O)CCN(CC(=O)O)CC1)C(=O)N[C@@H](CCCNC(=N)N)C(=O)N1CCC[C@H]1C(=O)N[C@@H](Cc1ccc(O)cc1)C(=O)N[C@H](C(=O)N[C@@H](CC(C)C)C(=O)O)C(C)(C)C [Compound 21]
pKi ± SD NTS2R (hNTS2R): 7.25 ± 0.15 | Ki (hNTS2R; [5]): 59 nM | NTS1R Selectivity (Ratio Ki (NTS2R)/Ki (NTS1R)) (hNTS1R [1]): 6.0 | pKi ± SD NTS1R (hNTS1R [1]; [3H]UR-MK300 c = 1 nM, HT-29 cells, 23 °C): 8.01 ± 0.08 | Ki (hNTS1R [1]; [3H]UR-MK300 c = 1 nM, HT-29 cells, 23 °C, read-out: Ki [nM] NTS1R (converted)): 9.9 nM | agonistic activity at the Gq-coupled NTS1R (hNTS1R [4]): full agonists | % Intact Peptide in Plasma after 24 h (in vitro; 24 h, 100 µM, pH 7.4): 26 ± 1% | % Intact Peptide in Plasma after 48 h (in vitro; 48 h, 100 µM, pH 7.4): 4.1 ± 0.1% | remaining at 1 h, 100 µM (in vitro; plasma, pH 7.4, % Intact Peptide in Plasma after 1 h): > 99% | remaining at 6 h, 100 µM (in vitro; plasma, pH 7.4, % Intact Peptide in Plasma after 6 h): > 99%
